Measurements reported in PMC9005681, “Use of AD Informer Set compounds to explore validity of novel targets in Alzheimer's disease pathology” (Alzheimer's & Dementia : Translational Research & Clinical …, 2022).
Where a name gives a salt, the structure may show the parent alone. Read-outs that look alike come from different tables or passages of the source.

What was measured:
Aβ40 and Aβ42 = test system: Aβ40 and Aβ42; parameters: method as in PMID 25331948; conditions: 2 mg/kg; cited from earlier work
tau phosphorylation [1] = test system: tau phosphorylation; parameters: method as in PMID 25331948; conditions: only observed at 10 μM; cited from earlier work
GPCRs = conditions: profiled against many of the same GPCRs; cited from earlier work
tau phosphorylation [2] = test system: tau phosphorylation; parameters: method as in PMID 32063836, PMID 28502066; conditions: cited from earlier work
[3] = test system: BV2 (mouse microglia) immortalized cell line; assay: pHrodo-myelin phagocytosis assay, BV2; type: cell-based; conditions: 10-point dose-response up to 20 or 40 μM, 24 or 48 h
Procedure: (§1) Microglial viability and phagocytosis studies: The pHrodo-myelin phagocytosis/cell viability assay, modified based on a published method, was run with BV2 (mouse microglia) and HMC3 (human microglia) immortalized cell lines in the Chu lab at IUSM. The 384-well plate high content analysis assay with BV2 and HMC3 microglial cell lines is used to quantify phagocytosis and cell viability simultaneously. High content imaging is performed with the ArrayScan automatic imaging system and imaging analysis done with the system’s software. Cells are treated with compounds for total 48 hours including final 20 hours seeded with pHrodo-myelin (labeled phagocytosis ligand, purified from mouse brain), then cells are stained with Hoechst- […]
(§2) Three measurements are extracted from the assay: 1) phagocytosis signal by mean total phagocytosis spot intensity per cell, 2) total cell counts per well as the main measurement of cell viability, and 3) mean average nuclear intensity per cell as profiling of cell health since apoptotic cells showing nuclear intensity increase (early apoptosis) and decrease (later apoptosis), respectively. […]
(§3) dose-response follow-up in duplicate or triplicate. These compounds were initially dosed up to […]

[4] = test system: BV2 (mouse microglia) immortalized cell line; conditions: cited from earlier work; for Phagocytosis BV2: 10 μM single concentration, normalized to control (DMSO) treated cells
cellular system = test system: cellular system; parameters: method as in column References for potency and dosing (the 5th table c13); conditions: published data; References for potency and dosing; cited from earlier work
[5] = test system: HMC3 (human microglia) immortalized cell line; assay: pHrodo-myelin phagocytosis assay, HMC3; type: cell-based; conditions: 10-point dose-response up to 20 or 40 μM, 24 or 48 h
Procedure: as §1, §2, §3

CYP3A43 = conditions: published affinity; ref PubMed 10801218, 1526623; cited from earlier work
[6] = test system: HMC3 (human microglia) immortalized cell line; assay: Microglial cell viability (cell count, nuclear measures), HMC3; type: cell-based; conditions: 10-point dose-response up to 20 or 40 μM, 24 or 48 h
Procedure: Microglial viability and phagocytosis studies: The pHrodo-myelin phagocytosis/cell viability assay, modified based on a published method, was run with BV2 (mouse microglia) and HMC3 (human microglia) immortalized cell lines in the Chu lab at IUSM. The 384-well plate high content analysis assay with BV2 and HMC3 microglial cell lines is used to quantify phagocytosis and cell viability simultaneously. High content imaging is performed with the ArrayScan automatic imaging system and imaging analysis done with the system’s software. Cells are treated with compounds for total 48 hours including final 20 hours seeded with pHrodo-myelin (labeled phagocytosis ligand, purified from mouse brain), then cells are stained with Hoechst-33342 one hour before the imaging. Three measurements are extracted from the assay: 1) phagocytosis signal by mean total phagocytosis spot intensity per cell, 2) total cell counts per well as the main measurement of cell viability, and 3) mean average nuclear intensity per cell as profiling of cell health since apoptotic cells showing nuclear intensity increase (early apoptosis) and decrease (later apoptosis), respectively.
Based on the single-concentration data, several compounds were selected for 10-point dose-response follow-up in duplicate or triplicate. These compounds were initially dosed up to 20 μM for 24h. […]

[7] = aqueous, neutral pH (7.4); cited from earlier work
[8] = test system: HMC3 (human microglia) immortalized cell line; conditions: cited from earlier work; for Phagocytosis HMC3: 10 μM single concentration, normalized to control (DMSO) treated cells
[9] = test system: BV2 (mouse microglia) immortalized cell line; conditions: 10 μM single concentration, normalized to control (DMSO) treated cells; in % (unit assumed); cited from earlier work
[10] = test system: HMC3 (human microglia) immortalized cell line; conditions: 10 μM single concentration, normalized to control (DMSO) treated cells; in % (unit assumed); cited from earlier work
[11] = test system: BV2 (mouse microglia) immortalized cell line; assay: Microglial cell viability (cell count, nuclear measures), BV2; type: cell-based; conditions: 10-point dose-response up to 20 or 40 μM, 24 or 48 h
Procedure: as §1, §2, §3

ALK = test system: ALK; parameters: method as in PubMed 24819116, 25733882; conditions: published affinity; ref PubMed 24819116, 25733882; cited from earlier work
ERBB3 (HER3) = test system: ERBB3 (HER3); parameters: method as in PubMed 20145185; conditions: published affinity; ref PubMed 20145185; cited from earlier work
[12] = 10 μM, murine immortalized microglial cells
[13] = 10 μM, human immortalized microglial cells

COc1ccc(-c2cc3nccn3c(Nc3ncccc3C(N)=O)n2)cc1OC [BAY61‐3606]
Detectable levels of Aβ40 and Aβ42 (Aβ40 and Aβ42): significant reduction
Tau phosphorylation (tau phosphorylation [1]): indirectly reduces tau phosphorylation

COc1cc(-c2cc3ncccc3c(O[C@H](C)[C@H]3CNC(=O)C3)n2)cc(OC)c1OC [BI1002494]
GPCR affinity (published profiling) (GPCRs): lacked this activity

O=c1c2ccccc2[se]n1-c1ccccc1 [Ebselen]
Tau phosphorylation (tau phosphorylation [2]): decrease tau phosphorylation

CC(=O)N1CCN(c2ccc(OCC3COC(Cn4ccnc4)(c4ccc(Cl)cc4Cl)O3)cc2)CC1 (stereo not drawn) [UNC10100724A, Ketoconazole]
Phagocytosis in dose-response follow-up, BV2 [3]: stimulation of phagocytosis was observed
Phagocytosis BV2 [4]: 280.0
Stimulation of mouse microglial phagocytosis at 10 μM (>150% control) [4, 12]: Y (The compound was found to stimulate phagocytosis (response threshold: >150% control) when murine immortalized microglial cells were dosed at 10 μM (Y: yes))
Reported as cell active (<10 μM) (cellular system): Y (Published data supports that the compound is active in a cellular system when dosed at 10 μM (Y/N))
Phagocytosis in dose-response follow-up, HMC3 [5]: stimulation of phagocytosis was observed
Reported on-target biochemical potency, CYP3A43 (CYP3A43): 64000 nM
Toxicity in dose-response follow-up, HMC3 [6]: without notable toxicity
Kinetic solubility [7]: 119.6 µM
Phagocytosis HMC3 [8]: 144.4
Cell number BV2 [9]: 129.7
DNA intensity BV2 [9]: 104.7
Nuclear size BV2 [9]: 103.8
Cell number HMC3 [10]: 125.5
DNA intensity HMC3 [10]: 100.1
Nuclear size HMC3 [10]: 96.3
Toxicity in dose-response follow-up, BV2 [11]: without notable toxicity

COc1cc2c(cc1OC)C(=O)C(CC1CCN(Cc3ccccc3)CC1)C2 (stereo not drawn) [UNC10240506B, Donepezil Hydrochloride (E2020)]
Reported as cell active (<10 μM) (cellular system): Y (Published data supports that the compound is active in a cellular system when dosed at 10 μM (Y/N))
DNA intensity BV2 [9]: 104.5
Cell number HMC3 [10]: 130.2
DNA intensity HMC3 [10]: 98.0

C[C@H]1Oc2cc(cnc2N)-c2c(nn(C)c2C#N)CN(C)C(=O)c2ccc(F)cc21 [UNC10244898A, Lorlatinib]
Phagocytosis in dose-response follow-up, BV2 [3]: inhibition/stimulation of phagocytosis occurred at a much lower concentration
Phagocytosis BV2 [4]: 200.3
Stimulation of mouse microglial phagocytosis at 10 μM (>150% control) [4, 12]: Y (The compound was found to stimulate phagocytosis (response threshold: >150% control) when murine immortalized microglial cells were dosed at 10 μM (Y: yes))
Reported as cell active (<10 μM) (cellular system): Y (Published data supports that the compound is active in a cellular system when dosed at 10 μM (Y/N))
Phagocytosis in dose-response follow-up, HMC3 [5]: inhibition/stimulation of phagocytosis occurred at a much lower concentration
Toxicity in dose-response follow-up, HMC3 [6]: Some toxicity was observed
Kinetic solubility [7]: 172 µM
Phagocytosis HMC3 [8]: 37.8
Inhibition of human microglial phagocytosis at 10 μM (<70% control) [8, 13]: Y (The compound was found to inhibit phagocytosis (response threshold: <70% control) when human immortalized microglial cells were dosed at 10 μM (Y: yes))
Cell number BV2 [9]: 117.2
DNA intensity BV2 [9]: 110.1
Nuclear size BV2 [9]: 102.7
Cell number HMC3 [10]: 127.2
DNA intensity HMC3 [10]: 89.2
Nuclear size HMC3 [10]: 110.3
Toxicity in dose-response follow-up, BV2 [11]: Some toxicity was observed
Reported on-target biochemical potency, ALK (ALK): <0.07 nM

CNC(=O)CN1CCC(Oc2cc3c(Nc4cccc(Cl)c4F)ncnc3cc2OC)CC1 [UNC10302865A, Sapitinib (AZD8931)]
Phagocytosis in dose-response follow-up, BV2 [3]: inhibition of phagocytosis
Phagocytosis BV2 [4]: 68.8
Inhibition of mouse microglial phagocytosis at 10 μM (<70% control) [4, 12]: Y (The compound was found to inhibit phagocytosis (response threshold: <70% control) when murine immortalized microglial cells were dosed at 10 μM (Y: yes))
Reported as cell active (<10 μM) (cellular system): Y (Published data supports that the compound is active in a cellular system when dosed at 10 μM (Y/N))
Phagocytosis in dose-response follow-up, HMC3 [5]: stimulation of microglial phagocytosis
Kinetic solubility [7]: 114.6 µM
Phagocytosis HMC3 [8]: 152.7
Stimulation of human microglial phagocytosis at 10 μM (>150% control) [8, 13]: Y (The compound was found to stimulate phagocytosis (response threshold: >150% control) when human immortalized microglial cells were dosed at 10 μM (Y: yes))
Reported on-target biochemical potency, ERBB3 (HER3) (ERBB3 (HER3)): 4 nM
Cell number BV2 [9]: 102.4
DNA intensity BV2 [9]: 101.0
Nuclear size BV2 [9]: 110.1
Cell number HMC3 [10]: 132.1
DNA intensity HMC3 [10]: 90.8
Nuclear size HMC3 [10]: 105.8
Toxicity in dose-response follow-up, BV2 [11]: Some toxicity was observed at the highest concentrations
